Data published in patent US9028845B2, “Chimeric immunomodulatory compounds and methods of using the same-IV” (Dynavax Technologies Corporation, priority 2001, dated 2015).

Key:
PBMCs = assay: Human PBMC proliferation assay (3H-thymidine incorporation); assay type: cell-based; conditions: Experiment A; for mean cpm: 2 μg/ml
mouse splenocytes = assay: Mouse splenocyte cytokine secretion (IL-6, IL-12, IFN by ELISA); assay type: cell-based, BALB/c mice; conditions: 24 h
Procedure: Polynucleotides and chimeric compounds were tested for immunostimulatory activity on mouse splenocytes. Immunostimulation was assessed by measurement of cytokine secretion into the culture media. Cytokine levels in the culture supernatant were determined by enzyme-linked immunosorbent assay (ELISA) tests.
Cells were isolated and prepared using standard techniques. Spleens of 8 to 20 week-old BALB/c mice were harvested and the splenocytes isolated using standard teasing and treatment with ACK lysing buffer from BioWhittaker, Inc. Four spleens were pooled in this experiment. Isolated cells were washed in RPMI 1640 media supplemented with 2% heat-inactivated fetal calf serum (FCS), 50 μM 2-mercaptoethanol, 1% penicillin-streptomycin, and 2 mM L-glutamine and resuspended at approximately […] in 10% FCS/RPMI (RPMI 1640 media with 10% heat-inactivated FCS, 50 μM 2-mercaptoethanol, 1% penicillin-streptomycin, and 2 mM L-glutamine).
Cell cultures were set up in triplicate with approximately 7×10^5 cells/well in a 96-well flat microtiter plate in 100 μl 10% FCS/RPMI with the cells allowed to rest for at lest 1 hour after plating. The indicated test compounds were incubated (at the indicated concentrations) for 24 hours at 37° C. Cell supernatants were harvested and frozen at −80° C. Cytokine production by the cells was determined by ELISAs, as shown in 19.

mouse lung = assay: Induction of immune-associated genes in the mouse lung after intranasal treatment (quantitative PCR); assay type: in vivo, BALB/c mice; conditions: 20 ug intranasal, 6 hrs; vs P-7 treated mice
Procedure: The genes evaluated included genes encoding cytokines, chemokines, cell surface molecules, transcription factors, metalloproteases, and other molecules. The study was performed at Northview Pacific Laboratories (Hercules, Calif.) with 6-8 week old female BALB/c mice from Jackson Labs (Bar Harbor, Me.). […] Therefore, at 6 hrs the lungs were harvested and snap-frozen in liquid nitrogen and stored at −80° C. for later use. Total RNA was isolated using RNeasy mini kits (Qiagen Inc., Valencia, Calif.). The RNA samples were DNAse-treated (Roche Diagnostics, Mannheim, Germany) and converted into cDNA using Superscript II Rnase H-Reverse Transcriptase (Invitrogen, Rockville Md.) as described in Scheerens et al., 2001, Eur. J. of Immunology 31:1465-74. The cDNA samples were pooled per group and in each pooled sample the expression of mRNA of 75 genes was measured using real-time quantitative PCR (ABI Prism 5700, Perkin Elmer Applied Biosystems) and syber green (Qiagen Inc.). In addition to the genes of interest, in each sample the mRNA expression of a housekeeping gene was measured (HPRT or ubiquitin). In order to correct for the amount of RNA in each sample, all data were calculated relative to the expression of the housekeeping gene.

mice = assay: Serum cytokines (IL-12 p40, IL-6, TNF-α) after subcutaneous injection in mice; assay type: in vivo; conditions: 20 ug subcutaneous, blood 2 hours later
Procedure: Blood was collected 2 hours later. For the LPS positive control group, mice were injected intraperitoneally with a 200 ul volume, and blood was collected 1.5 hours later (i.e., at the peak of LPS induced TNF-α activity). The blood was clotted and the serum was prepared and stored at −80° C. until assayed. Serum cytokines were assayed using Biosource cytoscreen kits for TNF-α and Pharmingen antibody pairs for mIL-6 and mIL-12. All samples were assayed in duplicate.

CD19+ B cells = assay: Human B cell proliferation assay (3H-thymidine incorporation); conditions: 2 μg/ml
Procedure: Purified human B cells from 2 donors were stimulated with 5 μg/ml P-6 or CIC for 96 h. Proliferation was assessed by ^3H-thymidine incorporation.
A CIC is considered to induce “little” human B cell proliferation if B cell proliferation in the presence of the CIC is between greater than 15 to about 30% of P-6.
Human PBMCs were isolated from heparanized blood from two normal subjects. Some PBMCs were held in reserve while the remainder was incubated with CD19+ MACS beads (Miltenyi Biotec). These cells were then passed through a magnet, separating the CD19+ B cells through positive selection. […] B cells were then cultured at 1×10^5/200 μl/well in 96-well round-bottomed plates. In some cases, PBMCs were also cultured, but at 2×10^5/200 μl/well. Cells were stimulated in triplicate with 2 μg/ml polynucleotide or CIC. The culture period was 48 hours at 37° C. At the end of the culture period, the plates were pulsed with ^3H-thymidine, 1 μCi/well, and incubated for an additional 8 hours. Then the plates were harvested using standard liquid scintillation techniques and data was collected in counts per minutes (cpm).

[1] = B cells, Donor 146, Experiment A
[2] = B cells, Donor 147, Experiment A
[3] = B cells, donor 194, Experiment B

5′-TGACTGTGAACGTTCGAGATGA-3′ (SEQ ID NO: 2) [Compound P-6, reference compound]
cpm1 (PBMCs; Donor 146, 2 μg/ml): 22067 cpm
cpm2 (PBMCs; Donor 146, 2 μg/ml): 23740 cpm
cpm3 (PBMCs; Donor 146, 2 μg/ml): 28099 cpm
mean cpm (PBMCs; Donor 146 mean): 24635 cpm
cpm1 (PBMCs; Donor 147, 2 μg/ml): 26436 cpm
cpm2 (PBMCs; Donor 147, 2 μg/ml): 23830 cpm
cpm3 (PBMCs; Donor 147, 2 μg/ml): 17531 cpm
mean cpm (PBMCs; Donor 147 mean): 22599 cpm
mean of both (PBMCs; mean of Donors 146 and 147, 2 μg/ml): 23617 cpm
IFN (mouse splenocytes; dose 0.1 μg/ml): 187
IL-12 (mouse splenocytes; dose 0.1 μg/ml): 1665
IFN (mouse splenocytes; dose 1.0 μg/ml): 2175
IL-6 (mouse splenocytes; dose 1.0 μg/ml): 5760
IL-12 (mouse splenocytes; dose 1.0 μg/ml): 4565
IFN (mouse splenocytes; dose 5.0 μg/ml): 2505
IL-6 (mouse splenocytes; dose 5.0 μg/ml): 9311
IL-12 (mouse splenocytes; dose 5.0 μg/ml): 5374
mRNA expression of immune-associated genes in the lung, in words (mouse lung): potently induce the expression of a variety of genes
induction of serum IL-12 p40, IL-6 and TNF-α, in words (mice): induced IL-12 p40, IL-6, and TNF-α
B cell proliferation, in words (CD19+ B cells; 48 h plus 8 h 3H-thymidine pulse): cause B cells to proliferate
cpm1 (CD19+ B cells; [1]): 29280 cpm
cpm2 (CD19+ B cells; [1]): 33430 cpm
cpm3 (CD19+ B cells; [1]): 30056 cpm
mean cpm (CD19+ B cells; B cells, Donor 146 mean, Experiment A): 30922 cpm
cpm1 (CD19+ B cells; [2]): 35729 cpm
cpm2 (CD19+ B cells; [2]): 18032 cpm
cpm3 (CD19+ B cells; [2]): 21166 cpm
mean cpm (CD19+ B cells; B cells, Donor 147 mean, Experiment A): 24976 cpm
cpm1 (CD19+ B cells; [3]): 13678 cpm
cpm2 (CD19+ B cells; [3]): 12732 cpm
cpm3 (CD19+ B cells; [3]): 9003 cpm
mean cpm (CD19+ B cells; B cells, donor 194 mean, Experiment B): 11804 cpm
mean of both (CD19+ B cells; B cells, mean of Donors 146 and 147, Experiment A): 27949 cpm
